Source: US20010041676A1, “Glycosides and orthoester glycosides of glucocorticoids and uses thereof” (priority 2000, published 2001)
Where two headings read alike, the source gives them in different places.

Key:
in vivo = settings: rat, serum, 20 mg
Procedure: (§1) 1 ml of rat serum was introduced into Varian-abselut (3 ml) cartridge (Part number SP12103100; analytical sample preparation and solid phase extraction use cartridge). Suction was applied and the cartridge was washed with 3 ml of water followed by 2 ml of water. The cartridges were dried under suction for 5 minutes and a jet stream of argon was blown to dry the trace amounts of water. The cartridge was washed once with 3 ml of hexane and the steroidal portion was eluted with 5 ml of methanol. The methanol portion was dried under nitrogen. The dried extract, which contains prednisolone or the glucoside, was constituted with 300 μl of ethyl acetate-methanol mixture (290 μl of ethyl acetate and 10 μl of methanol). 100 μl injections were made using manual injections in the HPLC instrument.
(§2) Hewlett Packard-Agilent 1100 series instrument with UV detector G1315A and a manual injector with a 100 μL loop were used in the assay.
(§3) The solvents used in the elution were a mixture of methanol (2 parts), ethyl acetate (42 parts) and hexane (56 parts). The mixture was run at a flow rate of 1 ml per minute.
(§4) The serum prednisolone and prednisolone glucoside levels were assessed from the animals dosed with either 20 mg of prednisolone or 29 mg of prednisolone glucoside (20 mg equivalent). The animals were sacrificed after 30 minutes and 60 minutes.
(§5) The serum prednisolone levels were calculated based upon the HPLC analyses of prednisolone and prednisolone glucoside. These values are calculated based upon the mAU and area values calculated against the standards.

[1] = rat serum; for Serum prednisolone-glycoside: prednisolone-glucoside group (29 mg); for Serum Prednisolone: prednisolone-glucoside group (29 mg, 20 mg equivalent)
Procedure: as §1, §2, §3, §4, §5

[2] = pH 1.0, 20 mg/ml, room temperature, up to 72 hours
Procedure: The acid stability of prednisolone glucoside was qualitatively assessed by thin layer chromatography (TLC).
Prednisolone glucoside was suspended in pH 1.0 (freshly prepared from 10 M HCl solution) at a concentration of 20 mg/ml and stirred as a turbid solution at room temperature for 72 hours. At 24 and 48 hours, 100 μl aliquots were removed and diluted with about 200 μl of methanol to make a homogeneous solution. Approximately 50 μl was applied to a TLC plate (Sigma-Aldrich #Z 29298-2, made by Merck—silica TLC plates) with several repeated small applications. As controls, standard applications of 10 μg of fresh prednisolone glucoside, dissolved in 100 μl of methanol, and about 10 μg of prednisolone, in 50 μl of methanol, were applied at separate spots. Several repeated small applications were used to minimize the size of applied spot.
The TLC plates were initially eluted with ethyl acetate and then illuminated with the Aldrich's hand held model UV source (short UV light source used, Spectroline #1281657). The TLC plates were then dried, reeluted with methanol and then illuminated again with the UV source.

## C[C@]12C=CC(=O)C=C1CC[C@@H]1[C@@H]2[C@@H](O)C[C@@]2(C)[C@H]1CC[C@]2(O)C(=O)CO [Prednisolone, prednisolone]
In vivo
  concentration at 30 min: 350 ng/mL
  concentration at 60 min: 156 ng/mL

## C[C@]12C=CC(=O)C=C1CC[C@@H]1[C@@H]2[C@@H](O)C[C@@]2(C)[C@H]1CC[C@]2(O)C(=O)CO[C@@H]1O[C@H](CO)[C@@H](O)[C@H](O)[C@H]1O [Prednisolone-glucoside, 1,4-pregnadiene-11β-17α-diol-21-O-1′-β′-glucopyranosyl-3,20-dione]
[1]; 30 mins
  Serum prednisolone-glycoside: 639 ng/mL
  Serum Prednisolone: 861 ng/mL
[1]; 60 mins
  Serum prednisolone-glycoside: 0 ng/mL
  Serum Prednisolone: 349.5 ng/mL
[2]
  Acid stability (qualitative, TLC): stable
